Reference: PMC9696794, “Synthesis and Antimicrobial Activity of Short Analogues of the Marine Antimicrobial Peptide Turgencin A: Effects of SAR Optimizations, Cys-Cys Cyclization and Lipopeptide Modifications” (International Journal of Molecular Sciences, 2022)
In brackets after ≈: the same amount, converted by molar mass. Where a SMILES comes first, the peptide text is derived from it. Bridges are numbered along the chain shown (N, C = ends). The star is where a group is joined. Lauroyl = CCCCCCCCCCCC(=O)*; Octanoyl = CCCCCCCC(=O)*

Assays:
[1] = system: S. aureus (Sa, ATCC 9144); assay: microbe, parasite or virus in culture; format: cell-based, Staphylococcus aureus; settings: for Antimicrobial Activity (MIC) Gram + Sa: ATCC 9144, 24 h
How it was run: (§1)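 Cultures grown in Mueller–Hinton broth were adjusted by OD600 to 2.5–3 × 10^4 CFU/mL and mixed with two-fold peptide dilutions from 256 to 1 µg/mL. Plates were incubated at 35 °C with OD595 monitored every hour for 24 h.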

[2] = system: C. albicans (Ca, ATCC 10231); assay: microbe, parasite or virus in culture; format: cell-based, Candida albicans; settings: for Antimicrobial Activity (MIC) Fungi Ca: ATCC 10231, 48 h
How it was run: (§2)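 Overnight cultures in potato dextrose broth with 2% glucose at 25–30 °C were diluted to approx. 4 × 10^5 spores/mL and mixed 1:1 with two-fold peptide dilutions plated at 256 to 1 µg/mL. After 48 h at room temperature, OD600 was read. MIC was the lowest concentration giving OD below 10% of the growth control, in triplicate.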

[3] = system: P. aeruginosa (Pa, ATCC 27853); assay: microbe, parasite or virus in culture; format: cell-based, Pseudomonas aeruginosa; settings: for Antimicrobial Activity (MIC) Gram − Pa: ATCC 27853, 24 h
How it was run: as §1

all bacterial strains = assay: Antibacterial MIC assay, all bacterial strains together (range or geometric mean); format: cell-based; settings: for GM (geometric mean of the MIC values against all bacterial strains): Table 1, six bacterial strains; for GM of MIC Tot. bact.: Table S3, all bacterial test strains, MIC >256 set to 256
How it was run: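 Broth microdilution in Mueller–Hinton broth against B. subtilis, C. glutamicum, S. aureus, S. epidermidis RP62A, E. coli and P. aeruginosa; inoculum 2.5–3 × 10^4 CFU/mL, 35 °C, OD595 read hourly for 24 h. MIC: lowest peptide concentration giving OD below 10% of growth control; geometric mean across strains, triplicate.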

[4] = system: B. subtilis (Bs, ATCC 23857); assay: microbe, parasite or virus in culture; format: cell-based, Bacillus subtilis; settings: for Antimicrobial Activity (MIC) Gram + Bs: ATCC 23857, 24 h
How it was run: as §1

[5] = system: C. glutamicum (Cg, ATCC 13032); assay: microbe, parasite or virus in culture; format: cell-based, Corynebacterium glutamicum; settings: for Antimicrobial Activity (MIC) Gram + Cg: ATCC 13032, 24 h
How it was run: as §1

Rhodotorula sp. (Rh) = assay: microbe, parasite or virus in culture; format: cell-based; settings: 48 h
How it was run: as §2

[6] = system: E. coli MC4100 (wild type, WT); assay: microbe, parasite or virus in culture; settings: for MIC E. coli MC4100 (WT): wild type
How it was run: (§3)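 Broth microdilution in Mueller–Hinton medium, 2.5–3 × 10^4 CFU/mL inoculum, two-fold peptide dilutions from 256 to 1 µg/mL, 35 °C with OD595 read hourly for 24 h. MIC is the lowest concentration giving OD below 10% of the untreated growth control; run in triplicate.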

[7] = system: E. coli NR698 (outer membrane permeable mutant, imp4213); assay: microbe, parasite or virus in culture; settings: for MIC E. coli NR698 (mutant): MC4100 NR698 imp4213, deficient outer membrane
How it was run: as §3

Compound | MIC ([1]; Staphylococcus aureus, ATCC9144, S. aureus ATCC 9144, 24 h, read-out: Antimicrobial Activity (MIC) Gram + Sa) [µg/mL] | MIC ([2]; Candida albicans, ATCC10231, C. albicans ATCC 10231, 48 h, read-out: Antimicrobial Activity (MIC) Fungi Ca) [µg/mL] | MIC ([3]; Pseudomonas aeruginosa, ATCC27853, P. aeruginosa ATCC 27853, 24 h, read-out: Antimicrobial Activity (MIC) Gram − Pa) [µg/mL] | MIC (all bacterial strains; read-out: GM (geometric mean of the MIC values against all bacterial strains)) [µg/mL] | MIC ([4]; Bacillus subtilis, ATCC23857, B. subtilis ATCC 23857, 24 h, read-out: Antimicrobial Activity (MIC) Gram + Bs) [µg/mL] | MIC ([5]; Corynebacterium glutamicum, ATCC13032, C. glutamicum ATCC 13032, 24 h, read-out: Antimicrobial Activity (MIC) Gram + Cg) [µg/mL] | MIC (Rhodotorula sp. (Rh); Rhodotorula sp., read-out: Antimicrobial Activity (MIC) Fungi Rh) [µg/mL] | MIC ([6]; Escherichia coli, read-out: MIC E. coli MC4100 (WT)) [µg/mL] | MIC ([7]; Escherichia coli, read-out: MIC E. coli NR698 (mutant)) [µg/mL] | Antimicrobial Activity (MIC) Gram + Sa [1] [µg/mL] | Antimicrobial Activity (MIC) Fungi Ca [2] [µg/mL] | Antimicrobial Activity (MIC) Gram − Pa [3] [µg/mL] | GM (geometric mean of the MIC values against all bacterial strains) (all bacterial strains) [µg/mL] | GM of MIC Tot. bact. (all bacterial strains) [µg/mL] | Antimicrobial Activity (MIC) Gram + Bs [4] [µg/mL] | Antimicrobial Activity (MIC) Gram + Cg [5] [µg/mL] | Antimicrobial Activity (MIC) Fungi Rh (Rhodotorula sp. (Rh)) [µg/mL] | MIC E. coli MC4100 (WT) [6] [µg/mL] | MIC E. coli NR698 (mutant) [7] [µg/mL]
[H]/N=C(\N/C(=N/[H])NCCCCCCNC(=N)NC(=N)Nc1ccc(Cl)cc1)Nc1ccc(Cl)cc1 [Chlorhexidine, reference compound] | 1.6 | 7.8 | 6.3 (≈ 12.5 µM) | 20 (≈ 39.6 µM) | 1.6 | 0.8 | 1 | 0.3 (≈ 0.594 µM) | 0.3 (≈ 0.594 µM) |  |  |  |  |  |  |  |  |  | 
CCCCCCCC(=O)N[C@H]1CSSC[C@@H](C(=O)N[C@@H](CCCCN)C(=O)N[C@@H](CC(C)C)C(N)=O)NC(=O)[C@H](CCCCN)NC(=O)[C@H](Cc2c[nH]c3ccccc23)NC(=O)CNC(=O)[C@H](Cc2c[nH]c3ccccc23)NC(=O)[C@H](Cc2c[nH]c3ccccc23)NC(=O)[C@H](CCCCN)NC(=O)[C@H](CCCCN)NC(=O)CNC1=O [Peptide C8-cTurg-2, C8- (CGKKWWGWKC)KL-NH2] (Octanoyl-CGKKWWGWKCKL-NH2; disulfide 1-10) |  |  |  |  |  |  |  |  |  | 4 | 32 | 8 | 4 | 4 | 2 | 2 | 4 | 8 (≈ 4.86 µM) | 2 (≈ 1.21 µM)
CCCCCCCCCCCC(=O)N[C@H]1CSSC[C@@H](C(=O)N[C@@H](CCCCN)C(=O)N[C@@H](CC(C)C)C(N)=O)NC(=O)[C@H](CCCCN)NC(=O)[C@H](Cc2c[nH]c3ccccc23)NC(=O)CNC(=O)CNC(=O)[C@@H]2CCCN2C(=O)[C@H](CCCCN)NC(=O)[C@H](CCCCN)NC(=O)CNC1=O [Peptide C12-cTurg-1, C12 -(CGKKPGGWKC)KL-NH2] (Lauroyl-CGKKPGGWKCKL-NH2; disulfide 1-10) |  |  |  |  |  |  |  |  |  | 4 | 64 | 16 | 4 | 4 | 2 | 2 | 4 | 4 (≈ 2.7 µM) | 2 (≈ 1.35 µM)
